Measured values taken from patent publication US20240076272A1, “Activators of Heme Regulated Inhibitor Kinase (HRI)” (The Brigham and Women`s Hospital, Inc., priority 2019, published 2024).

What was measured:
[1] = tested on: eIF2α phosphorylation (ATF-4 5′UTR luciferase reporter); assay: surrogate eIF2α phosphorylation dual-luciferase reporter (DLR) assay; type: cell-based; conditions: for fold induction at 1.25 µM: read-out: Fold stimulation of ATF-4 Surrogate eIF2α @ 1.25 μM; for fold induction at 5 µM: read-out: Fold stimulation of ATF-4 Surrogate eIF2α @ 5 μM
Description: The dual luciferase expression vector and other plasmids used in the Examples provided herein have been previously reported (see e.g., Ziegeler et al, J. Biol. Chem. 285 (2010) 15408-15419). The dual luciferase surrogate eIF2α phosphorylation assay, has also been previously reported (see e.g., Chen et al, Nat. Chem. Biol. 7 (2011) 610-616). Briefly, a dual Renilla and Firefly luciferase mammalian reporter vector that transcribes both mRNAs from the same bi-directional enhancer/promoter complex was utilized for generation of surrogate eIF2α phosphorylation assay (see e.g., Ziegeler et al, J. Biol. Chem. 285 (2010) 15408-15419). Both mRNAs contained the same 90 nucleotide plasmid derived 5′UTR. In addition, 5′UTR of the Firefly luciferase open reading frame was fused in-frame to the 267 nucleotide ATF-4 5′UTR (see e.g., Chen et al, Nat. Chem. Biol. 7 (2011) 610-616).
Cells expressing firefly and renilla luciferases were assayed with a dual glow luciferase assay kit, per manufacturer's instruction (Promega Inc., Madison, WI). The data calculations were carried out as the ratio of firefly to renilla luciferase signal (see e.g., Ziegeler et al, J. Biol. Chem. 285 (2010) 15408-15419). Dose-response curves were obtained, and triplicate data points were fitted to the logistical sigmoidal model using nonlinear least-squares regression performed in GraphPad Prism 6.
All newly synthesized N,N′-disubstituted ureas were initially evaluated by testing in the surrogate eIF2α phosphorylation dual-luciferase reporter (DLR) assay (see e.g., Chen et al, Nat. Chem. Biol. 7 (2011) 610-616; and Ziegeler et al, J. Biol. Chem. 285 (2010) 15408-15419). Briefly, this assay takes advantage of the fact that activated HRI phosphorylates eIF2α which inhibits eIF2 guanine nucleotide exchange factor eIF2B, responsible for exchanging the GDP in the eIF2·GDP complex for GTP. The reduction in the recycling of eIF2·GDP into eIF2·GTP interferes with the formation of eIF2·GTP·Met-tRNAi ternary complex. […] These include mRNA coding for activating transcription factor 4 (ATF-4) (see e.g., Aktas et al, Oncotarget, 4 (2013) 1606-1617; Aktas et al, Oncotarget, 6 (2015) 6902-6914; and Aktas et al, Proc. Natl. Acad. Sci. U.S.A. 95 (1998) 8280-8285).
In the present assay, firefly (F) luciferase mRNA was fused to the 5′UTR of ATF-4 mRNA that had multiple uORFs, while renilla (R) luciferase mRNA was fused to a 5′UTR lacking any uORFs. Agents that reduce the amount of the eIF2·GTP·Met-tRNAi ternary complex, such as N,N′-disubstituted ureas that activate HRI, increase F luciferase expression while reducing the R luciferase expression, resulting in an increased F/R luciferase ratio. The ureas of the present application were tested at 10 μM, 5 μM, 2.5 μM, and 1.25 μM concentrations in 96-well assay plates (see e.g., Chen et al, Nat. Chem. Biol. 7 (2011) 610-616; and Bai et al, ChemBioChem, 14 (2013) 1255-1262). The activity scores as the F/R ratios were calculated for every compound-treated well and normalized to F/R ratio of vehicle-treated (DMSO) wells in the same plate, arbitrarily set at 1 (F/R=1). Data obtained in the surrogate dual-luciferase eIF2α phosphorylation (DLR) assay for the series of 1-phenyl-3/4-(4-trifluorometyl) phenoxy-cycloalkyl)ureas (4-CF3-ΦcAlkΦUs) and 1-phenyl-3-(5-(4-(trifluoromethyl) phenoxy)pyrimidin-2-yl)ureas (4-CF3-ΦOPyΦUs) described herein are shown in Tables 1-2.

cyclin D1 = assay: Western blot, cyclin D1 expression in CRL-2813 cells; type: cell-based, human; conditions: 5 μM, 8 hours, Western blot (FIG. 2B)
Protocol: (§1) FIGS. 2A-2B show HRI activators of the present application induce eIF2α phosphorylation and modify its downstream effectors. In FIG. 2A, CRL-2813 cells were treated with 5 μM of each compound for 2 hours, cell lysates were probed with phosphorylated (P-eIF2α) and total eIF2α (T-eIF2α) and β-actin specific antibodies. In FIG. 2B, CRL-2813 cells were treated with 5 μM HRI activators for 8 hours and lysates were immunoblotted with antibodies against CHOP, p27^KiPl, cyclin D1 and β-actin.
(§2) Cells cultured under recommended media conditions were plated and maintained in serum-containing media without antibiotics in 14-cm plates (Nunc) until reaching 70% confluence. Cells were then treated with compounds for 6 h, washed with cold PBS once, and lysed with M-PER Mammalian Protein Extraction Reagent (Pierce) for 30 min on ice. The cell lysates were centrifuged at 12,000 RPM for 15 min and the supernatants were transferred to fresh tubes and the concentrations were determined by BCA (Pierce). Equal amount of proteins were mixed with Laemmli Sample Buffer, heated at 100° C. for 5 min, separated by SDS-PAGE, and probed with anti-phosphoserine-51-eIF2α (Phos-eIF2α), anti-total eIF2α-specific antibodies (Total-eIF2α) (Biosource International, Hopkinton, MA), anti-CHOP, anti-cyclin D1 or anti-actin (Santa Cruz Biotechnology, CA) using procedures substantially similar to previous reports (see e.g., Aktas et al, Mol. Cell. Biol. 17 (1997) 3850-3857).
(§3) Endogenous eIF2α is the best-known substrate of HRI and the upstream regulator of the eIF2·GTP·Met-tRNAi ternary complex abundance, while CHOP expression is a downstream effector of eIF2α phosphorylation. For assessing eIF2α phosphorylation, blotted cell lysates were treated for two hours with vehicle or selected compounds using antibodies specific for the total-eIF2α and the phosphorylated-eIF2α (T-eIF2α and [PhoS^51]-eIF2α), respectively (see e.g., Aktas et al, J. Nutr. 134 (2004) 2487S-2491S) (see FIG. 2A).

CHOP = assay: Western blot, CHOP expression in CRL-2813 cells; type: cell-based, human; conditions: 5 μM, 8 hours, Western blot (FIG. 2B)
Protocol: as §1, §2, §3

[2] = tested on: human melanoma CRL-2813 cells; assay: sulforhodamine B (SRB) cell proliferation assay; type: cell-based; conditions: Homo sapiens, CRL2813, 120 h, 5 days, read-out: IC50 (concentration that inhibits growth of human melanoma CRL-2813 cells by 50%)
Protocol: Cells were seeded in 96-well plates and maintained for 5 days in the presence of 0.5 μM to 20 μM of individual compound, and cell proliferation was measured by the sulforhodamine B (SRB) assay according to previous reports (see e.g., Palakurthi et al, Cancer Res. 60 (2000) 2919-2925): briefly, at the end of a 5-day treatment, cells were fixed in 10% cold trichloroacetic acid. Cell number was estimated by measuring the remaining bound dye of sulforhodamine B after washing. The percentage of growth was calculated by using the equation: 100×[(T-T0)/(C-T0)], where T and C represent the absorbance in treated and control cultures at Day 5, and T0 at time zero, respectively. If T was less than T0, cell death had occurred and was calculated from 100×[(T-T0)/T0].
All 4-CF3-ΦOcAlkΦUs were tested in the sulforhodamine B (SRB) cell proliferation assay to establish the concentrations that inhibit human melanoma CRL-2813 cells growth by 50% (IC50) (see Table 1). This activity reflects a combined effect of membrane permeability and overall anti-proliferative effects that include on target and off-target effects.

endogenous eIF2α = assay: Western blot, phosphorylation of endogenous eIF2α in CRL-2813 cells; type: cell-based, human; conditions: 5 μM, 2 hours, Western blot (FIG. 2A)
Protocol: as §1
Cells cultured under recommended media conditions were plated and maintained in serum-containing media without antibiotics in 14-cm plates (Nunc) until reaching 70% confluence. Cells were then treated with compounds for 6 h, washed with cold PBS once, and lysed with M-PER Mammalian Protein Extraction Reagent (Pierce) for 30 min on ice. The cell lysates were centrifuged at 12,000 RPM for 15 min and the supernatants were transferred to fresh tubes and the concentrations were determined by BCA (Pierce). […]

[3] = 1.25 μM, F/R luciferase ratio normalized to DMSO wells (F/R=1)
[4] = F/R luciferase ratio normalized to DMSO wells (F/R=1)

melting point [°C] | IC50 [2] [nM] | Structure (SMILES) | fold induction at 1.25 µM [1, 3] | fold induction at 5 µM [1, 4] | expression of cyclin D1 relative to DMSO (cyclin D1) | expression of CHOP relative to DMSO (CHOP) | activity in the DLR assay (in words) [1] | phosphorylation of endogenous eIF2α (endogenous eIF2α) | Fold stimulation of ATF-4 Surrogate eIF2α @ 1.25 μM [1, 3] [fold]
227.3 to 229.9 | 1600 ± 2000 | O=C(Nc1cccc(F)c1F)N[C@H]1CC[C@H](Oc2ccc(C(F)(F)F)cc2)CC1 [Compound 11-VI, 1-(2,3-Difluorophenyl)-3-(trans-4-(4-(trifluoromethyl)phenoxy)cyclohexyl)urea] | 4.7 ± 1 | 9.9 ± 1.3 | decreased the expression of cyclin D1 | increased the expression of CHOP | – | – | –
181.1 to 182.3 | 4900 | N#Cc1cccc(NC(=O)N[C@H]2C[C@H](Oc3ccc(C(F)(F)F)cc3)C2)c1 [Compound 3-IV, 1-(3-Cyanophenyl)-3-(trans-3-(4-(trifluoromethyl)phenoxy)cyclobutyl)urea] | 1.6 | 3.5 ± 0.4 | – | – | – | – | 1.6 ± 0.2
221.6 to 223.6 | 1400 ± 300 | N#Cc1ccc(NC(=O)N[C@H]2CC[C@H](Oc3ccc(C(F)(F)F)cc3)CC2)c(F)c1 [Compound 8-VI, 1-(4-Cyano-2-fluorophenyl)-3-(trans-4-(4-(trifluoromethyl)phenoxy)cyclohexyl)urea] | 2.4 ± 0.4 | 6.2 ± 1.3 | – | – | – | – | –
238.2 to 239.8 | 5300 ± 1800 | Cc1ccc(F)cc1NC(=O)N[C@H]1CC[C@H](Oc2ccc(C(F)(F)F)cc2)CC1 [Compound 7-VI, 1-(5-Fluoro-2-methylphenyl)-3-(trans-4-(4-(trifluoromethyl)phenoxy)cyclohexyl)urea] | 1.8 ± 0.8 | 1.5 ± 0.4 | decreased the expression of cyclin D1 | increased the expression of CHOP | – | – | –
182.8 to 185 | 2800 ± 1300 | N#Cc1cc(F)cc(NC(=O)N[C@H]2C[C@H](Oc3ccc(C(F)(F)F)cc3)C2)c1 [Compound 4-IV, 1-(3-Cyano-5-fluorophenyl)-3-(trans-3-(4-(trifluoromethyl)phenoxy)cyclobutyl)urea] | 2 ± 0.4 | 5.3 ± 0.6 | – | – | – | – | –

Second part, the compound before the results:

Structure (SMILES) | melting point [°C] | IC50 [2] [nM] | fold induction at 1.25 µM [1, 3] | fold induction at 5 µM [1, 4] | expression of cyclin D1 relative to DMSO (cyclin D1) | expression of CHOP relative to DMSO (CHOP) | activity in the DLR assay (in words) [1] | phosphorylation of endogenous eIF2α (endogenous eIF2α) | Fold stimulation of ATF-4 Surrogate eIF2α @ 1.25 μM [1, 3] [fold]
Cc1ccc(F)cc1NC(=O)N[C@H]1C[C@H](Oc2ccc(C(F)(F)F)cc2)C1 [Compound 7-IV, 1-(5-Fluoro-2-methylphenyl)-3-(trans-3-(4-(trifluoromethyl)phenoxy)cyclobutyl)urea] | 204.2 to 206 | > 10000 | 0.7 ± 0.2 | 1.4 ± 0.1 | – | – | – | – | –
N#Cc1ccc(F)c(NC(=O)N[C@H]2CC[C@H](Oc3ccc(C(F)(F)F)cc3)CC2)c1 [Compound 6-VI, 1-(5-Cyano-2-fluorophenyl)-3-(trans-4-(4-(trifluoromethyl)phenoxy)cyclohexyl)urea] | 234.6 to 237 | > 10000 | 1 ± 0.3 | 1.5 ± 0.5 | did not inhibit the expression of cyclin D1 | did not increase expression of CHOP | inactive | least active | –
O=C(Nc1cccc(C(F)(F)F)c1)N[C@H]1CC[C@H](Oc2ccc(C(F)(F)F)cc2)C1 [Compound 2-V] | 123.5 to 125.3 | 2500 ± 500 | 1.2 ± 0.4 | 7 ± 0.9 | – | – | – | – | –
O=C(Nc1ccc(F)c(F)c1)N[C@H]1CC[C@H](Oc2ccc(C(F)(F)F)cc2)CC1 [Compound 10-VI, 1-(3,4-Difluorophenyl)-3-(trans-4-(4-(trifluoromethyl)phenoxy)cyclohexyl)urea] | 228.2 to 229.8 | 1300 ± 300 | 2.9 ± 0.7 | 5.6 ± 1.2 | – | – | – | – | –
